Measured values as given in patent US20230012368A1 (Hoffmann-La Roche Inc., priority 2018, published 2023).
Where a name gives a salt, the structure may show the parent alone.

These compounds were tested on Acinetobacter baumannii ATCC 17978 (assay: Antimicrobial susceptibility testing: 90% growth inhibitory concentration (IC90) determination). Conditions: 90% growth inhibitory concentration; Acinetobacter baumannii ATCC17978; Iso-Sensitest broth, OD 600 nm over 16h; read-out: ATCC17978 IC90.
Format: cell-based
How it was run: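 Compounds serially twofold diluted (e.g. 50 to 0.097 μM final) in Iso-Sensitest broth, inoculated at ~5×10^(5) CFU/ml, incubated at 35±2° C. OD600 read every 20 minutes over 16h. IC90 taken as concentration inhibiting 90% of growth during logarithmic phase.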
Compound `CCc1cc(Nc2nccn3c(-c4ccc(OC)c(F)c4Cl)cnc23)ccc1C(=O)NCCCN` [Example 389, N-(3-aminopropyl)-4-[[3-(2-chloro-3-fluoro-4-methoxyphenyl)imidazo[1,2-a]pyrazin-8-yl]amino]-2-ethylbenzamide; hydrochloride] has an IC90 of 500 nM. For `CCc1cc(Nc2nccn3c(-c4ccc(Oc5ccc(OCCCN)cn5)c(F)c4F)cnc23)ccc1C(=O)NC` [Example 511, 4-[[3-[4-[[5-(3-aminopropoxy)-2-pyridyl]oxy]-2,3-difluoro-phenyl]imidazo[1,2-a]pyrazin-8-yl]amino]-2-ethyl-N-methyl-benzamide; formic acid], the IC90 was 480 nM. `CCc1cc(Nc2nccn3c(-c4ccc(OC)c(F)c4F)cnc23)ccc1C(=O)NCCCCC(=O)NC[C@H]1O[C@H](O[C@@H]2[C@@H](O)[C@H](O[C@H]3O[C@H](CN)[C@@H](O)[C@H](O)[C@H]3O)[C@@H](N)C[C@H]2NC(=O)[C@@H](O)CCN)[C@H](O)[C@@H](N)[C@@H]1O` [Example 454, trifluoroacetate] was tested, and the IC90 was 970 nM.

Same assay, conditions: Acinetobacter baumannii, ATCC17978, 16 h, 90% growth inhibitory concentration; Acinetobacter baumannii ATCC17978; Iso-Sensitest broth, OD 600 nm over 16h; read-out: ATCC17978 IC90
With `COc1ccc(-c2cnc3c(Nc4ccc(C(=O)N(C)CCN(C)C)cc4)nccn23)cc1Cl` [Example 28, 4-((3-(3-chloro-4-methoxyphenyl)imidazo [1,2-a]pyrazin-8-yl)amino)-N-(2-(dimethylamino)ethyl)-N-methylbenzamide] the IC90 was 3600 nM. For `N#CCOc1ccc(-c2cnc3c(Nc4ccc(C(=O)NCCCc5ccncc5)c(Cl)c4)nccn23)c(F)c1F` [Example 76, 2-chloro-4-[[3-[4-(cyanomethoxy)-2,3-difluoro-phenyl]imidazo[l,2-a]pyrazin-8-yl]amino]-N-[3-(4-pyridyl)propyl] benzamide; 2,2,2-trifluoroacetic acid], the IC90 was 170 nM. `Cc1cc(Nc2nccn3c(-c4ccc(Cl)cc4)cnc23)ccc1C(=O)NCCCCN` [Example 239, N-(4-aminobutyl)-4-[[3-(4-chlorophenyl)imidazo[1,2-a]pyrazin-8-yl]amino]-2-methylbenzamide; hydrochlo-ride] gave an IC90 of 540 nM. `CCc1cc(Nc2nccn3c(-c4ccc(Oc5ccc(OCCN)cn5)c(F)c4F)cnc23)ccc1C(=O)NC` [Example 512, 4-[[3-[4-[[5-(2-aminoethoxy)-2-pyridyl]oxy]-2,3-difluoro-phenyl]imidazo[1,2-a]pyrazin-8-yl]amino]-2-ethyl-N-methyl-benzamide; formic acid] showed an IC90 of 510 nM. `COc1ccc(-c2cnc3c(Nc4ccc(C(=O)NCCN5CCN(C)CC5)c(C)c4)nccn23)cc1` [Example 49] showed an IC90 of 470 nM. `CCc1cc(Nc2nccn3c(-c4ccc(OCC#CCOCCN)c(F)c4F)cnc23)ccc1C(=O)NCCCN` [Example 159, 4-[[3-[4-[4-(2-aminoethoxy)but-2-ynoxy]-2,3-difluoro-phenyl]imidazo[1,2-a]pyrazin-8-yl]amino]-N-(3-aminopropyl)-2-ethyl-benzamide] was tested, and the IC90 was 230 nM. `COc1ccc(-c2cnc3c(Nc4ccc(C(=O)NCCCCCCN)c(C)c4)nccn23)c(F)c1F` [Example 493, N-(6-aminohexyl)-4-((3-(2,3-difluoro-4-methoxyphenyl)imidazo[1,2-a]pyrazin-8-yl)amino)-2-methylbenzamide hydrochloride] was tested, and the IC90 was 35 nM. Work on `CCc1cc(Nc2nccn3c(-c4ccc(OC(F)F)c(F)c4F)cnc23)ccc1C(=O)NCCNC(=O)[C@@H](N)CCCNC(=N)N` [Example 333, N-[2-[[(2S)-2-amino-5-carbamimidamidopentanoyl]amino]ethyl]-4-[[3-[4-(difluoromethoxy)-2,3-difluorophenyl]imidazo[1,2-a]pyrazin-8-yl]amino]-2-ethylbenzamide;formic acid] yielded an IC90 of 340 nM. Compound `CCc1cc(Nc2nccn3c(-c4ccc(OC)c(F)c4F)cnc23)ccc1C(=O)NCC(=O)N1CCN[C@H](CO)C1` [Example 464, 4-[[3-(2,3-difluoro-4-methoxy-phenyl)imidazo[1,2-a]pyrazin-8-yl]amino]-2-ethyl-N-[2-[(3S)-3-(hydroxymethyl)piperazin-1-yl]-2-oxo-ethyl]benzamide] has an IC90 of 240 nM. In the case of `COc1ccc(-c2cnc3c(Nc4ccc(C(=O)NCC5CCNCC5)c(C)c4)nccn23)cc1` [Example 211, 4-[[3-(4-methoxyphenyl)imidazo[1,2-a]pyrazin-8-yl]amino]-2-methyl-N-(piperidin-4-ylmethyl)benzamide;hydrochlo-ride], the IC90 is reported as 640 nM. Compound `Cc1cc(Nc2nccn3c(-c4ccc(OC(F)F)cc4)cnc23)ccc1C(=O)N[C@H](C)CN` [Example 270, N-[(2R)-1-aminopropan-2-yl]-4-[[3-[4-(difluoromethoxy)phenyl]im-idazo[1,2-a]pyrazin-8-yl]amino]-2-methylbenzamide;hydrochlo-ride] has an IC90 of 7700 nM. With `COc1ccc(-c2cnc3c(Nc4ccc(C(=O)NCCCNC(=O)[C@@H]5C[C@](C)(O)CN5)c(C)c4)nccn23)c(F)c1F` [Example 361, (2S,4S)-N-[3-[[4-[[3-(2,3-difluoro-4-methoxyphenyl)imidazo[1,2-a]pyrazin-8-yl]amino]-2-methylbenzoyl]amino]propyl]-4-hydroxy-4-methylpyrrolidine-2-carboxamide] the IC90 was 80 nM. `Cc1cc(Nc2nccn3c(-c4ccc(OC(F)F)cc4)cnc23)ccc1C(=O)NCCNC(=O)N1CCNCC1` [Example 345, N-[2-[[4-[[3-[4-(difluoromethoxy)phenyl]im-idazo[1,2-a]pyrazin-8-yl]amino]-2-methylbenzoyl]amino]ethyl] piperazine-1-carboxamide] gave an IC90 of 900 nM. With `CCc1cc(Nc2nccn3c(-c4ccc(OC)c(F)c4F)cnc23)ccc1C(=O)NCC(O)CNC(=O)CN` (stereo not shown) [Example 374, N-[3-[(2-aminoacetyl)amino]-2-hydroxypropyl]-4-[[3-(2,3-difluoro-4-methoxyphenyl)imidazo[1,2-a]pyrazin-8-yl]amino]-2-ethylbenzamide] the IC90 was 190 nM. `Cc1cc(Nc2nccn3c(-c4ccc(OC(F)F)cc4)cnc23)ccc1C(=O)N(C)CCCSc1nnnn1C` [Example 178, 4-[[3-[4-(difluoromethoxy)phenyl]im-dazo[1,2-a]pyrazin-8-yl]amino]-N,2-dimethyl-N-[3-(1-methyltetrazol-5-yl)sulfanylpropyl]benzamide] gave an IC90 of 1000 nM. `Cc1cc(Nc2nccn3c(-c4ccc(OC(F)F)cc4)cnc23)ccc1C(=O)N(CCO)CCO` [Example 262, 4-[[3-[4-(difluoromethoxy)phenyl]im-idazo[1,2-a]pyrazin-8-yl]amino]-N,N-bis(2-hydroxyethyl)-2-methylbenzamide] was tested, and the IC90 was 5000 nM. `COc1ccc(-c2cnc3c(Nc4ccc(C(=O)NCCN5CCNCC5)c(C)c4)nccn23)c(F)c1F` [Example 377, 4-[[3-(2,3-difluoro-4-methoxyphenyl)imidazo[1,2-a]pyrazin-8-yl]amino]-2-methyl-N-(2-piperazin-1-ylethyl)benzamide] gave an IC90 of 180 nM. Work on `CCc1cc(Nc2nccn3c(-c4ccc(OC)c(F)c4F)cnc23)ccc1C(=O)NCCNC(=O)CN` [Example 368, N-[2-[(2-aminoacetyl)amino]ethyl]-4-[[3-(2,3-difluoro-4-methoxyphenyl)imidazo[1,2-a]pyrazin-8-yl]amino]-2-ethylbenzamide] yielded an IC90 of 120 nM. `CCc1cc(Nc2nccn3c(-c4ccc(OC)c(F)c4F)cnc23)ccc1C(=O)NCC1CCN(CCC2CCCN2)CC1` (stereo not shown) [Example 556, 4-[[3-(2,3-difluoro-4-methoxy-phenyl)imidazo[1,2-a]pyrazin-8-yl]amino]-2-ethyl-N-[[1-(2-pyrrolidin-2-ylethyl)-4-piperidyl]methyl]benzamide] gave an IC90 of 310 nM. For `COc1ccc(-c2cnc3c(Nc4ccc(C(=O)NCCCNC(=O)CC[C@H](N)C(=O)O)c(C)c4)nccn23)c(F)c1F` [Example 355, (2S)-2-amino-5-[3-[[4-[[3-(2,3-difluoro-4-methoxyphenyl)imidazo[1,2-a]pyrazin-8-yl]amino]-2-methylbenzoyl]amino]propyl-amino]-5-oxopentanoic acid], the IC90 was 2500 nM. Compound `CCc1cc(Nc2nccn3c(-c4ccc(OC)c(F)c4F)cnc23)ccc1C(=O)NCC(O)CNC(=O)CC(O)CN` (stereo not shown) [Example 411, N-(3-(4-amino-3-hydroxybutanamido)-2-hydroxypropyl)-4-((3-(2,3-difluoro-4-methoxyphenyl)imidazo[1,2-a]pyrazin-8-yl)amino)-2-ethylbenzamide hydrochloride] has an IC90 of 320 nM. `CCc1cc(Nc2nccn3c(-c4ccc(OC)c(F)c4F)cnc23)ccc1C(=O)NCC(=O)NCCNC` [Example 428, 4-[[3-(2,3-difluoro-4-methoxy-phenyl)imidazo[1,2-a]pyrazin-8-yl]amino]-2-ethyl-N-[2-[2-(methylamino)ethylamino]-2-oxo-ethyl]benzamide; formic acid] gave an IC90 of 410 nM. With `COc1ccc(-c2cnc3c(Nc4ccc(C(=O)NCC5CCN(C(=N)N)CC5)c(C)c4)nccn23)c(F)c1F` [Example 292, N-[(1-carbamimidoylpiperidin-4-yl)methyl]-4-[[3-(2,3-difluoro-4-methoxyphenyl)imidazo[1,2-a]pyrazin-8-yl]amino]-2-methylbenzamide] the IC90 was 110 nM. In the case of `CCc1cc(Nc2nccn3c(-c4ccc(Oc5ccncn5)c(F)c4F)cnc23)ccc1C(=O)N[C@@H](C)CNC(=O)[C@@H](N)CCNC(=N)N` [Example 457, N-[(1S)-2-[[(2S)-2-amino-4-guanidino-butanoyl]amino]-1-methyl-ethyl]-4-[[3-(2,3-difluoro-4-pyrimidin-4-yloxy-phenyl)imidazo[1,2-a]pyrazin-8-yl]amino]-2-ethyl-benzamide; formic acid], the IC90 is reported as 980 nM. `CCc1cc(Nc2nccn3c(-c4ccc(Oc5ccccn5)c(F)c4F)cnc23)ccc1C(=O)NCCNC(=O)[C@@H](N)CCCNC(=N)N` [Example 417, N-[2-[[(2S)-2-amino-5-guanidino-pentanoyl]amino]ethyl]-4-[[3-[2,3-difluoro-4-(2-pyridyloxy)phenyl]imidazo [1,2-a]pyrazin-8-yl]amino]-2-ethyl-benzamide; formic acid] gave an IC90 of 850 nM.
